Where “and” joins values, the source holds several entries; their conditions need not be identical. Equal values may be shown once.
Assays:
[1] = n-octanol/water partition coefficient by shake flask method; type: physicochemical; details: for log PO/W: n-octanol/water, shake flask, 25 °C
Experimental: The n-octanol/water partition coefficient (log PO/W) was determined for ferulic acid and its derivatives by shake flask method. n-Octanol saturated with water and water saturated with n-octanol were prepared at 25 °C, 24 h prior to their use in the experiments. Then, a sample of 10 mg of compound was weighed with the accuracy of 0.01 mg in a 16 cm^3 screwed vial and dissolved in 5 cm^3 of n-octanol. Next, 5 cm^3 of water was added to the vial. The resulting two-phase mixture was kept in water bath shaker at 25 °C for 2 h and was strongly shaken to reach the partition equilibrium of the compound between the phases. Then the mixture was left unshaken for 30 min and 1.0 cm^3 of water phase was carefully taken out to centrifuge tube. The sample was next centrifuged for 10 min at 7500 rpm at 25 °C to ensure the most precise phase separation. The concentration of compound in water phase was then determined using HPLC method. The partition coefficient, log PO/W was calculated according to the formula: logPO/W=logC0V0−CWVW/CWVW where: C0—initial concentration of the compound in n-octanol, calculated based on the weighed mass of compound, mg·cm^−^3; V0—volume of n-octanol, cm^3; CW—concentration of the compound in water after partition equilibrium, mg·cm^−^3; VW—volume of water, cm^3.

[2] = DPPH radical scavenging assay of the compounds
Experimental: (§1) To determine the antioxidant capacity of ferulic acid and its derivatives the DPPH method was used. The analyses were performed using the Hitachi UV-Vis Spectrophotometer U-5100 at the wavelength λ = 517 nm. Trolox (6-hydroxy-2,5,7,8-tetramethylchroman-2-carboxylic acid) was used as a reference substance. The antioxidant activity was expressed as %RSA and mmol Trolox dm^−3. […]. Blank samples without antioxidant were prepared in the same way. The tubes were wrapped in aluminum foil and were sealed with a stopper and then incubated for 10 min at room temperature. After this time, spectrophotometric measurements were carried out in triplicate. For determination of antioxidant activity of the acceptor fluid after 24 h of permeation and solutions obtained by extraction of the skin obtained after penetration study, 0.15 mL samples of each solutions were separately added to 2.85 mL of DPPH solution and spectrophotometric measurements were performed. The antioxidant activity was expressed as mmol Trolox·dm^−3.

[3] = Skin permeation in Franz diffusion cells; type: in vitro ADME, pig; details: 24 h, 10 mg as FA applied
Experimental: In the experiment, abdominal porcine skin coming from the local slaughterhouse was used. Pig skin was chosen because of its similar permeability to human skin [34, 35]. The fresh abdominal porcine skin was washed several times in PBS buffer pH 7.4. The skin of 0.5 mm in thickness was dermatomed and divided into 2 cm × 2 cm pieces. The skin samples were wrapped in aluminum foil and stored at −20 °C until use, not longer than 3 months. According to Badran et al., this storage time at this temperature is safe to keep skin barrier properties. Immediately before the experiment, the skin samples were slowly thawed at room temperature for 30 min and then were hydrated by PBS pH 7.4 [37, 38, 39, 40]. Such prepared skin was mounted on donor chamber. Only the undamaged skin pieces with an even thickness were chosen for experiments. The integrity of the skin was checked by impedance measurement using an LCRmeter4080 (Conrad Electronic, Hirschau, Germany), operated in parallel mode at an alternating frequency of 120 Hz (error at kΩ values < 0.5%). The tips of measuring probes were immersed in the donor and acceptor chamber containing PBS (pH 7.4), as described previously. Only skin samples of impedance > 3 kΩ were applied as such impedance is similar to the electrical resistance of human skin [42].
The concentration of FA and its derivatives in the acceptor fluid and in the fluid obtained by skin extraction after permeation experiment was assessed using liquid chromatography system (Knauer, Berlin, Germany) consisting of a model 2600 UV detector, Smartline model 1050 pump and Smartline model 3950 autosampler. HPLC was controlled by ClarityChrom 2009 software. The detector was operated at 280 nm. The separations were performed on 125 mm × 4 mm ID chromatographic column filled with Hyperisil ODS (C18), particle size 5 µm, in isocratic mode. The mobile phase consisted of acetonitrile, 1% acetic acid, and MeOH (47/47/6 v/v/v) and was pumped at flow rate of 1 mL min^−1. The column temperature was set at 25 °C, and the injection volume was 20 µL.
(§2) The permeation experiments were performed using Franz diffusion cells (Phoenix DB-6, ABL&E-JASCO, Wien, Austria). The diffusion was 1 cm^2. The volume of the acceptor chamber was 8 mL. This chamber was filled with PBS solution (pH 7.4). During experiment, a constant temperature of 37.0 ± 0.5 °C was maintained in each diffusion unit. The acceptor chamber content was stirred with a magnetic stirring bar at the same speed for all cells. The prepared pig skin was mounted on each donor chamber. As previously mentioned, only undamaged skin pieces with an even thickness were chosen for experiments. Thereafter, the hydrogel or emulsion vehicle/preparation in 1 g portion was put on the skin in donor cells. For comparison, 1 mL ethanolic solution containing either FA or its derivatives was applied to another donor chamber. The amount of the FA and its derivatives applied on the skin expressed as the mass of ferulic acid was 0.01 g and was the same for each carrier. The penetration experiments were carried out for 24 h. The samples were collected after 1 h, 2 h, 3 h, 4 h, 5 h, 6 h, 8 h, and 24 h. Aliquots of the acceptor fluid (0.5 mL) were withdrawn and to each acceptor chamber the same volume of fresh PBS solution was added. The FA and its derivatives’ concentrations in the acceptor fluid were measured by HPLC method (Section 2.6.2). The cumulative mass (µg·cm^−2) and penetration rate (µg·cm^−2·h^−1) were calculated. The acceptor fluid collected after 24 h of permeation was also measured for antioxidant activity and total polyphenol content (as described in Section 2.5.1 and Section 2.5.2).

[4] = DPPH antioxidant activity of acceptor fluid after 24 h permeation; design: species or system pig; details: after 24 h penetration
Experimental: as §1, §2

[5] = DPPH antioxidant activity of solution obtained after skin extraction; design: species or system pig; details: after 24 h penetration
Experimental: as §1
The accumulation of the FA and its derivatives in the skin after 24 h permeation process through the skin were determined using a modification of the methods described by Janus et al. and Taokaew et al.. After 24 h of permeation experiment, the skin samples were removed from the Franz diffusion cell, washed three times with 0.5% sodium lauryl sulfate solution and dried at room temperature. Next, after cutting out the diffusion area of each skin sample, the samples were immersed in 2 mL of absolute ethanol and continuously stirred at 300 rpm at room temperature for 24 h. The samples were then centrifuged, and clear solutions were collected and analyzed by HPLC method for the determination of FA and its derivatives. The accumulation of the active substance in the skin was calculated by dividing the amount of the drug remaining in the skin by a mass of skin sample and was expressed in mass active substance per mass of the skin (µg g^−1). For solution obtained after skin extraction, the antioxidant activity and total polyphenol content were also determined (as described in Section 2.5.1 and Section 2.5.2).

[6] = Thermogravimetric (TG) analysis, thermal stability; type: physicochemical; details: air atmosphere, 10 °C·min^−1; for Td onset, the onset of decomposition: TG; for Td max, temperature of the fastest mass loss of the sample: TG/DTG
Experimental: Samples of 2–5 mg, loaded in aluminium crucibles, were heated from 30 °C to 600 °C at the heating rate of 10 °C·min^−1, in the air atmosphere (25 mL·min^−1) with nitrogen flow (10 mL·min^−1) as the purge gas.

[7] = design: method as in PMID 20692328; details: cited from earlier work
[8] = tested on: UVB irradiated human melanocytes; design: method as in PMID 19274591; details: cited from earlier work
[9] = molar ratio antioxidant:DPPH 0.1, 10 min
[10] = molar ratio antioxidant:DPPH 1.0, 10 min
[11] = molar ratio antioxidant:DPPH 2.0, 10 min
[12] = from solution in 70% (v/v) ethanol

Row | Compound | log PO/W [1] | Antioxidant activity %RSA [2, 9] | Antioxidant activity, Trolox equivalents [2, 9] | Antioxidant activity %RSA [2, 10] [b %RSA] | Antioxidant activity, Trolox equivalents [2, 10] [b mmol Trolox dm^−3] | Antioxidant activity %RSA [2, 11] | Antioxidant activity, Trolox equivalents [2, 11] | Cumulative Permeation Mass ([3]; from emulsion) [a µg FA·cm^−2] | Cumulative Permeation Mass ([3]; from hydrogel) [a µg FA·cm^−2] | Cumulative Permeation Mass [3, 12] | DPPH antioxidant activity of the acceptor fluid ([4]; emulsion) | DPPH antioxidant activity of the acceptor fluid ([4]; ethanol solution) | DPPH antioxidant activity of the acceptor fluid ([4]; hydrogel) | DPPH antioxidant activity of the solution obtained after skin extraction ([5]; emulsion) | DPPH antioxidant activity of the solution obtained after skin extraction ([5]; ethanol solution) [a mmol Trolox dm^−3] | DPPH antioxidant activity of the solution obtained after skin extraction ([5]; hydrogel) | Td onset, the onset of decomposition [6] [°C] | Td max, temperature of the fastest mass loss of the sample [6] [°C] | skin permeation compared with pure FA [7] | other results
1 | CCCOC(=O)[C@@H](N)CC(C)C.COc1cc(/C=C/C(=O)O)ccc1O [LPr[FA], L-leucine propyl ester ferulate] | 0.454 ± 0.009 | 17.6 ± 0.001 %RSA and 17.6 ± 0.001 a %RSA | 0.098 ± 0.001 mmol Trolox dm^−3 and 0.098 ± 0.001 a mmol Trolox dm^−3 | 79.5 ± 0.001 | 0.696 ± 0.001 | 87.8 ± 0.001 %RSA and 87.8 ± 0.001 b %RSA | 0.776 ± 0.001 mmol Trolox dm^−3 and 0.776 ± 0.001 b mmol Trolox dm^−3 | 119.29 ± 19.72 | 267.48 ± 24.57 | 415.12 ± 8.71 µg FA·cm^−2 and 415.12 ± 8.71 b µg FA·cm^−2 | 0.053 ± 0.005 mmol Trolox dm^−3 and 0.053 ± 0.005 a mmol Trolox dm^−3 | 0.098 ± 0.011 mmol Trolox dm^−3 and 0.098 ± 0.011 a mmol Trolox dm^−3 | 0.063 ± 0.009 mmol Trolox dm^−3 and 0.063 ± 0.009 a mmol Trolox dm^−3 | 0.257 ± 0.014 ab mmol Trolox dm^−3 | 0.255 ± 0.038 | 0.298 ± 0.009 mmol Trolox dm^−3 and 0.320 ± 0.030 ab mmol Trolox dm^−3 | 126.0 | 156.0 |  | DPPH antioxidant activity of the solution obtained after skin extraction ([5]; ethanol solution, listed as Leu[FA]): 0.255 ± 0.038 mmol Trolox dm^−3
2 | COc1cc(/C=C/C=O)ccc1O [CD, coniferyl aldehyde] |  |  |  |  |  |  |  |  |  |  |  |  |  |  |  |  |  |  | permeated the skin to a higher degree than pure FA | 
3 | CCOC(=O)/C=C/c1ccc(O)c(OC)c1 [FAEE, ferulic acid ethyl ester] |  |  |  |  |  |  |  |  |  |  |  |  |  |  |  |  |  |  | permeated the skin to a higher degree than pure FA | production of ROS [8]: reduced the production of ROS
4 | COc1cc(/C=C/CO)ccc1O [CA, coniferyl alcohol] |  |  |  |  |  |  |  |  |  |  |  |  |  |  |  |  |  |  | permeated the skin to a higher degree than pure FA | 
5 | CCCOC(=O)CN.COc1cc(/C=C/C(=O)O)ccc1O [GPr[FA], glycine propyl ester ferulate] | 0.582 ± 0.019 | 17.6 ± 0.001 %RSA and 17.6 ± 0.001 a %RSA | 0.099 ± 0.001 mmol Trolox dm^−3 and 0.099 ± 0.001 a mmol Trolox dm^−3 | 78.0 ± 0.001 | 0.681 ± 0.001 | 86.6 ± 0.001 %RSA and 86.6 ± 0.001 b %RSA | 0.764 ± 0.001 mmol Trolox dm^−3 and 0.764 ± 0.001 b mmol Trolox dm^−3 | 101.70 ± 26.47 | 268.16 ± 12.71 | 378.26 ± 2.29 a µg FA·cm^−2 | 0.059 ± 0.010 a mmol Trolox dm^−3 | 0.097 ± 0.021 b mmol Trolox dm^−3 | 0.069 ± 0.002 a mmol Trolox dm^−3 | 0.235 ± 0.037 a mmol Trolox dm^−3 | 0.257 ± 0.026 | 0.298 ± 0.009 a mmol Trolox dm^−3 | 129.6 | 145.3 |  | Share of compound partitioned to n-octanol ([1]; from log PO/W): 79%

Reference: article PMC9861623, “New Ferulic Acid and Amino Acid Derivatives with Increased Cosmeceutical and Pharmaceutical Potential” (Pharmaceutics, 2022)
